In the NIST ThermoML archive (doi:10.1016/j.jct.2016.05.021):
± gives the expanded uncertainty stated by the source.

Assay: xn = mol fraction of the nth substance listed
Conditions: 100 kPa, Liquid; for speed of sound: Frequency=3 MHz, Sing-around technique in a fixed-path interferometer; for mass density: Vibrating tube method

O=C1CCCN1 [2-pyrrolidinone] + CCCC[n+]1ccn(C)c1.O=S(=O)([N-]S(=O)(=O)C(F)(F)F)C(F)(F)F
Conditions	mass density, 298.15 K [kg/m3]	mass density, 303.15 K [kg/m3]	mass density, 308.15 K [kg/m3]	mass density, 313.15 K [kg/m3]	speed of sound, 298.15 K [m/s]	speed of sound, 303.15 K [m/s]	speed of sound, 308.15 K [m/s]	speed of sound, 313.15 K [m/s]	speed of sound, 318.15 K [m/s]
x2 = 0	1107.16 ± 1	1103.07 ± 1	1098.99 ± 1	1094.9 ± 1	1634.3 ± 1.4	1617.7 ± 1.4	1602.3 ± 1.4	1585.4 ± 1.4	1569.4 ± 1.4
x2 = 0.1242	1204.09 ± 1	1198.66 ± 1	1193.23 ± 1	1187.79 ± 1	1491.9 ± 1.4	1477.1 ± 1.4	1462.9 ± 1.4	1448.4 ± 1.3	1434.3 ± 1.3
x2 = 0.22	1253.58 ± 1	1248.02 ± 1	1242.46 ± 1	1236.9 ± 1	1431.2 ± 1.3	1417 ± 1.3	1403.4 ± 1.3	1389.4 ± 1.3	1375.9 ± 1.3
x2 = 0.3191	1292.55 ± 1	1287.03 ± 1	1281.51 ± 1	1275.99 ± 1	1387.3 ± 1.3	1373.5 ± 1.3	1360.3 ± 1.3	1346.9 ± 1.3	1333.8 ± 1.3
x2 = 0.4048	1320.08 ± 1	1314.63 ± 1	1309.18 ± 1	1303.73 ± 1	1357.6 ± 1.3	1344.4 ± 1.3	1331.3 ± 1.3	1318.2 ± 1.3	1305.5 ± 1.3
x2 = 0.51	1348.24 ± 1	1342.88 ± 1	1337.52 ± 1	1332.16 ± 1	1327.5 ± 1.3	1314.7 ± 1.3	1302.1 ± 1.3	1289.4 ± 1.3	1276.9 ± 1.3
x2 = 0.5945	1367.5 ± 1	1362.18 ± 1	1356.86 ± 1	1351.54 ± 1	1306.9 ± 1.3	1294.3 ± 1.3	1281.8 ± 1.3	1269.4 ± 1.3	1257.2 ± 1.3
x2 = 0.7171	1391.3 ± 1	1386.09 ± 1	1380.88 ± 1	1375.67 ± 1	1280.2 ± 1.3	1268.1 ± 1.3	1255.9 ± 1.3	1244 ± 1.3	1232.2 ± 1.3
x2 = 0.8383	1411.52 ± 1	1406.4 ± 1	1401.28 ± 1	1396.16 ± 1	1256.7 ± 1.3	1244.9 ± 1.3	1233.1 ± 1.3	1221.8 ± 1.3	1210.4 ± 1.3
x2 = 0.9084	1421.66 ± 1	1416.7 ± 1	1411.74 ± 1	1406.78 ± 1	1244 ± 1.3	1232.4 ± 1.3	1221 ± 1.3	1209.8 ± 1.3	1198.6 ± 1.3
